According to publication PMC6825211 (Nature Communications, 2019):
Several values for one entry are separate records, joined by “and”; a condition that tells them apart may be missing. Identical values can stand only once.

Experiments:
MLD–STZ C57BL/6J mice = assay: MLD–STZ model: intraperitoneal insulin tolerance test (ipITT); type: in vivo, mouse; design: ipITT glucose: unit not given here
Method: C57Bl/6J mice were injected with 40 mg/kg streptozotocin or citrate buffer for 5 consecutive days. […] In d, basal glucose values were normalized to 100%. e Insulin secretion measured from retro-orbital blood draw during an ipGTT measured before (0 min) and 15 min after glucose injection; data are expressed as the ratio of secreted insulin at 15 min/0 min (stimulatory index). f The ratio of secreted insulin and glucose is calculated at fed state. g–i Mice were killed at day 35. g β-cell mass (given as percentage of the whole pancreatic section from ten sections spanning the width of the pancreas) and quantitative analyses from triple staining for h TUNEL or i Ki67, insulin, and DAPI expressed as percentage of TUNEL- or Ki67-positive β-cells ±SEM. An average number of 2331 (h), or 26369 (i) β-cells were counted. n = 9 mice/group for (a); n = 4–12 for (b); n = 5–15 for (c) and (d); n = 12–19 for (e); n = 8–14 for (f); n = 4–9 for (g); n = 4–11 for (h); and n = 6–11 mice/groupfor (i); all from three independent experiments).
(§1) For intraperitoneal glucose tolerance tests, mice were fasted 12 h overnight and injected i.p. with glucose (40%; B.Braun, Melsungen, Germany) at a dose of 1 g/kg body weight. Blood samples were obtained at time points 0, 15, 30, 60, 90, and 120 min for glucose measurements by using a Glucometer. For i.p. insulin tolerance tests, mice were injected with 0.75 U/kg body weight recombinant human insulin (Novolin, Novo Nordisk) after 4–5-h fasting, and glucose concentration was determined with the Glucometer. Insulin secretion was measured before (0 min) and after (15 and 30 min) i.p. injection of glucose (2 g/kg) and measured by using ultrasensitive mouse Elisa kit (ALPCO Diagnostics, Salem, NH).

[1] = tested on: obese diabetic Lepr db/db mice; assay: db/db model: ipGTT; type: in vivo, mouse; design: AUC ipGTT: unit not given beside the values
Description: Data are representative of six mice per group (n = 6 for (a–f)). g–j Mice were killed at day 31. g β-cell mass (given as percentage of the whole pancreatic section from ten sections spanning the width of the pancreas; n = 5 mice/group) and quantitative analyses from triple stainings for (h) TUNEL, (i) Ki67, (j) pHH3, and (k) nuclear PDX1 expression, insulin, and DAPI expressed as percentage of TUNEL-, Ki67-, pHH3-, or nuclear PDX1-positive β-cells ± SEM. An average number of 13667 (h), 5937 (i), 7108 (j), or 4330 (k) β-cells were counted from n = 3–5 (h, i, k) or n = 5–6 (j) mice/group.
as §1

LCK = LCK (Homo sapiens, UniProt P06239); assay: biochemical; details: read-out: % inhibition by neratinib
LCK, sequence (P06239 whole entry, species assumed): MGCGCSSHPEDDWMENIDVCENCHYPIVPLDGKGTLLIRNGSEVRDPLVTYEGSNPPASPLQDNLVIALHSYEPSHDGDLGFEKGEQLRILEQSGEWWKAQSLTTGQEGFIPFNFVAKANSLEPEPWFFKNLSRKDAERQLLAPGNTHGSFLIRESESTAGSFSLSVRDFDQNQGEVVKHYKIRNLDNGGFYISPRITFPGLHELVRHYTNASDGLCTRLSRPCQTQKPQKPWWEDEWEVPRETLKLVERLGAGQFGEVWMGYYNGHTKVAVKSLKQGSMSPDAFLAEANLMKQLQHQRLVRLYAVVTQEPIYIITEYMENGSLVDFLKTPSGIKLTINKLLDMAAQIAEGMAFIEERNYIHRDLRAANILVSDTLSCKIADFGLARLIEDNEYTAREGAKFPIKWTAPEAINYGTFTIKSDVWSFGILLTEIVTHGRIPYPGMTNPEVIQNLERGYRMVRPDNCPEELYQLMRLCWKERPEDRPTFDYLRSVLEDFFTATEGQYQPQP

MST1 = target: T1, MST1 (Homo sapiens, UniProt Q13043); assay: biochemical
T1 sequence (Q13043 1-487): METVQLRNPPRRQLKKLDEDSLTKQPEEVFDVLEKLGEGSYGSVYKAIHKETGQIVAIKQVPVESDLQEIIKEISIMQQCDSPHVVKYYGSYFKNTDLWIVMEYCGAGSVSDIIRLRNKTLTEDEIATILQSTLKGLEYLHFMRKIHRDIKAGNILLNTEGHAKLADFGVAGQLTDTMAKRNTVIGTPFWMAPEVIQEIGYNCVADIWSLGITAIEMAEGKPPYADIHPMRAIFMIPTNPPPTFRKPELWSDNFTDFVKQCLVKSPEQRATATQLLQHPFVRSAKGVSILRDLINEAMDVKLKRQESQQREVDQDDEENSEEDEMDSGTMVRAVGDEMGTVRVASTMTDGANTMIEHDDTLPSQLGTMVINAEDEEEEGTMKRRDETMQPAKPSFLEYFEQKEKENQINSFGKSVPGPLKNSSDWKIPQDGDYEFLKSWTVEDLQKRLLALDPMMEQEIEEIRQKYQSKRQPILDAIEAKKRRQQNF

CK1-EPSILON = CK1-EPSILON (Homo sapiens, UniProt P49674); assay: Nanosyn kinase profiling, mobility shift assay; details: read-out: % inhibition by neratinib
CK1-EPSILON, sequence (P49674 whole entry): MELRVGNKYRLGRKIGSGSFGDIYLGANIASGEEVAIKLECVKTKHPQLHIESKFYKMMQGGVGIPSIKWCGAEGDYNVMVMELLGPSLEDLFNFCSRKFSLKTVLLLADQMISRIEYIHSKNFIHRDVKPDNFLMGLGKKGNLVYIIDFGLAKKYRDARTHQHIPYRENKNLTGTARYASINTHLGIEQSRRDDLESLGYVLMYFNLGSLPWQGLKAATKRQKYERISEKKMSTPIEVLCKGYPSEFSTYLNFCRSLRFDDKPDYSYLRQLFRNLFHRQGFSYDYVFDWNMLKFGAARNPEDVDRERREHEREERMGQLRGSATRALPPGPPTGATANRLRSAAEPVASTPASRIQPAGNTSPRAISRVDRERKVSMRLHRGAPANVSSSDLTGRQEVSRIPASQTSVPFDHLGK

PYK2 = PYK2 (Homo sapiens, UniProt Q14289); assay: Nanosyn kinase profiling, mobility shift assay; details: read-out: % inhibition by neratinib
PYK2, sequence (Q14289 whole entry): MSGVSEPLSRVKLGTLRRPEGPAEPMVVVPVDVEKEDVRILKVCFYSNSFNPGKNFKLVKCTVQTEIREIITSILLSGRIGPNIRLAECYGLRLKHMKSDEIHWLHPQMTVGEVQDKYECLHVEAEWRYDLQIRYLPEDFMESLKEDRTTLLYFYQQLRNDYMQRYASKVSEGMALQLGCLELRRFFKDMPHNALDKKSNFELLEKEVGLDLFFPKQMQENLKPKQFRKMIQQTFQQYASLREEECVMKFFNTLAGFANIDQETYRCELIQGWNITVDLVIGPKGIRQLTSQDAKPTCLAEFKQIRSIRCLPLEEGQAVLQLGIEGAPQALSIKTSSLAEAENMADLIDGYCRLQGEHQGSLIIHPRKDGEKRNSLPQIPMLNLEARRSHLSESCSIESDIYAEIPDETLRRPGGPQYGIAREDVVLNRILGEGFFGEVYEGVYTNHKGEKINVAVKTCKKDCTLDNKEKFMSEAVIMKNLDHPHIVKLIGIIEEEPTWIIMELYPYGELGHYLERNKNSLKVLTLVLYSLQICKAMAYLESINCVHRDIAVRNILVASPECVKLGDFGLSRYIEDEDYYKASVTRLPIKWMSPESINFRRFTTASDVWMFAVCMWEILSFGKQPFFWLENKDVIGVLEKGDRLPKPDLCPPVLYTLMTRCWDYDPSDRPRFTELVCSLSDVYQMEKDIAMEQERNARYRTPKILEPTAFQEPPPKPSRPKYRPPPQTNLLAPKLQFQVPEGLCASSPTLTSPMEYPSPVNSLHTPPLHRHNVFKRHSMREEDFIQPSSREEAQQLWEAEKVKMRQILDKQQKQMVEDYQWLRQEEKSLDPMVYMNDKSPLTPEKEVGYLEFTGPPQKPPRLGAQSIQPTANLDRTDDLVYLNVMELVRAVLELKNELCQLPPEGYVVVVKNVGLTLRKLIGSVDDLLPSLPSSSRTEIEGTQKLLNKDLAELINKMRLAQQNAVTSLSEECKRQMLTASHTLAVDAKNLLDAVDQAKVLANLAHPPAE

SGK1 = SGK1 (Homo sapiens, UniProt O00141); assay: Nanosyn kinase profiling, mobility shift assay; details: read-out: % inhibition by neratinib
SGK1, sequence (O00141 whole entry): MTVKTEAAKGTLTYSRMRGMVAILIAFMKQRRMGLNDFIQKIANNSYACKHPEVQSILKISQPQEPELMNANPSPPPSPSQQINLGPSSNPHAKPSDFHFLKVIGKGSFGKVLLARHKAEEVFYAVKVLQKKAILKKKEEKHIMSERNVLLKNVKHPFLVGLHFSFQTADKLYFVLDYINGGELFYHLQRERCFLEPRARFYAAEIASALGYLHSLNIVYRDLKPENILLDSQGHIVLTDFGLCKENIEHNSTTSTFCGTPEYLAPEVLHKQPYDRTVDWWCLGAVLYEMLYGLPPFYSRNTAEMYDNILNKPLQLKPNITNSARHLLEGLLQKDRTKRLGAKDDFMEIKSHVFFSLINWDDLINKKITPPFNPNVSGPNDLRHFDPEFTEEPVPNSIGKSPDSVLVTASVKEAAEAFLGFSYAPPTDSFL

SYK = SYK (Homo sapiens, UniProt P43405); assay: Nanosyn kinase profiling, mobility shift assay; details: read-out: % inhibition by neratinib
TYK2 = TYK2 (Homo sapiens, UniProt P29597); assay: Nanosyn kinase profiling, mobility shift assay; details: read-out: % inhibition by neratinib
TYK2, sequence (P29597 whole entry): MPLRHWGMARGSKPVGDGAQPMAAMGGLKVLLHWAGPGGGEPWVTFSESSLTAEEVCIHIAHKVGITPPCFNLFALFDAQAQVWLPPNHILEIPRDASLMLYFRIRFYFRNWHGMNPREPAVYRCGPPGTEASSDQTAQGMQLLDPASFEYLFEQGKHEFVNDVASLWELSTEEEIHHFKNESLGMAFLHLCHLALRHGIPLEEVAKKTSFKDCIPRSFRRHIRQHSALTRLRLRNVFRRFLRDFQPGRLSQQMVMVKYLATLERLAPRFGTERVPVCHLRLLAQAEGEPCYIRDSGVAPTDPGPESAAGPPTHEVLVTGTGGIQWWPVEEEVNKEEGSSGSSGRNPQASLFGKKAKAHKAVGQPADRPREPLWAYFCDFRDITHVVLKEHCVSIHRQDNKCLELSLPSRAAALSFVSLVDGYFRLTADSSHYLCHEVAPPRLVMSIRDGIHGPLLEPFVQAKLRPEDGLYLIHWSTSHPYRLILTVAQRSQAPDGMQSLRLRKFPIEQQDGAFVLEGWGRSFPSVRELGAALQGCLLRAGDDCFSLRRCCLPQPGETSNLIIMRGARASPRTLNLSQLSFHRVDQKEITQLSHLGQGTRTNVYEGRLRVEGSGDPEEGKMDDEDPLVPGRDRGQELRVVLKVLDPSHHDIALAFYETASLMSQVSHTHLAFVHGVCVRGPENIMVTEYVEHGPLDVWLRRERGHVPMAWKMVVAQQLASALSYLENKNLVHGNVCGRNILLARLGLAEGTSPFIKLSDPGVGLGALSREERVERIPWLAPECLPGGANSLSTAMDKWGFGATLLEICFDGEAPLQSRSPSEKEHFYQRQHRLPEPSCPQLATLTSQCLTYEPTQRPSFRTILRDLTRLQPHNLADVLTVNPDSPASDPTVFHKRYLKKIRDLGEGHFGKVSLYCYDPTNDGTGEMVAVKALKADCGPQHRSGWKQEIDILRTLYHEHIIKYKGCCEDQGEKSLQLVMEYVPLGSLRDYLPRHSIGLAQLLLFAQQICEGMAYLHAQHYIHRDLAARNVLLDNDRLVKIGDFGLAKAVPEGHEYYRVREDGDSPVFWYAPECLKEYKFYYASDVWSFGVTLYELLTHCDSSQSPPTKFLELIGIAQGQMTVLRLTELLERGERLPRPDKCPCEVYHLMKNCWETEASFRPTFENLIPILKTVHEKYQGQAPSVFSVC

MST1–LATS2 signaling = assay: Western blot of YAP-S127 phosphorylation (MST1/LATS2 overexpression); details: 10 μM, last 24 h

CCOc1cc2ncc(C#N)c(Nc3ccc(OCc4ccccn4)c(Cl)c3)c2cc1NC(=O)/C=C/CN(C)C [neratinib]
insulin sensitivity (normalized glucose levels) (MLD–STZ C57BL/6J mice; MLD–STZ study): neither neratinib nor STZ had a significant effect | ipITT glucose (MLD–STZ C57BL/6J mice; NeraCtr, 0 min, Mean): 130.4 | ipITT glucose normalized to 100, MEAN (MLD–STZ C57BL/6J mice; NeraCtr, 0 min after ins): 100 | ipITT glucose (MLD–STZ C57BL/6J mice; NeraCtr, 0 min after ins, individual mice): 135 and 120 and 117 and 132 and 148 | ipITT glucose (MLD–STZ C57BL/6J mice; NeraCtr, 15 min, Mean): 84.6 | ipITT glucose normalized to 100, MEAN (MLD–STZ C57BL/6J mice; NeraCtr, 15 min after ins): 64.88 | ipITT glucose (MLD–STZ C57BL/6J mice; NeraCtr, 15 min after ins, individual mice): 94 and 83 and 116 and 55 and 75 | ipITT glucose (MLD–STZ C57BL/6J mice; NeraCtr, 30 min, Mean): 84.4 | ipITT glucose normalized to 100, MEAN (MLD–STZ C57BL/6J mice; NeraCtr, 30 min after ins): 64.72 | ipITT glucose (MLD–STZ C57BL/6J mice; NeraCtr, 30 min after ins, individual mice): 80 and 67 and 123 and 71 and 81 | ipITT glucose (MLD–STZ C57BL/6J mice; NeraCtr, 60 min, Mean): 82.8 | ipITT glucose normalized to 100, MEAN (MLD–STZ C57BL/6J mice; NeraCtr, 60 min after ins): 63.5 | ipITT glucose (MLD–STZ C57BL/6J mice; NeraCtr, 60 min after ins, individual mice): 84 and 80 and 121 and 48 and 81 | ipITT glucose (MLD–STZ C57BL/6J mice; NeraCtr, 90 min, Mean): 89 | ipITT glucose normalized to 100, MEAN (MLD–STZ C57BL/6J mice; NeraCtr, 90 min after ins): 68.25 | ipITT glucose (MLD–STZ C57BL/6J mice; NeraCtr, 90 min after ins, individual mice): 90 and 87 and 129 and 52 | ipITT glucose (MLD–STZ C57BL/6J mice; NeraSTZ, 0 min, Mean): 286.636 | ipITT glucose normalized to 100, MEAN (MLD–STZ C57BL/6J mice; NeraSTZ, 0 min after ins): 100 | ipITT glucose (MLD–STZ C57BL/6J mice; NeraSTZ, 0 min after ins, individual mice): 462 and 369 and 228 and 215 and 295 and 196 and 335 and 337 and 212 and 296 and 208 | ipITT glucose (MLD–STZ C57BL/6J mice; NeraSTZ, 15 min, Mean): 267.636 | ipITT glucose normalized to 100, MEAN (MLD–STZ C57BL/6J mice; NeraSTZ, 15 min after ins): 93.37 | ipITT glucose (MLD–STZ C57BL/6J mice; NeraSTZ, 15 min after ins, individual mice): 244 and 341 and 151 and 180 and 262 and 206 and 353 and 362 and 225 and 333 and 287 | ipITT glucose (MLD–STZ C57BL/6J mice; NeraSTZ, 30 min, Mean): 187.273 | ipITT glucose normalized to 100, MEAN (MLD–STZ C57BL/6J mice; NeraSTZ, 30 min after ins): 65.33 | ipITT glucose (MLD–STZ C57BL/6J mice; NeraSTZ, 30 min after ins, individual mice): 114 and 186 and 102 and 127 and 207 and 173 and 304 and 307 and 97 and 216 and 227 | ipITT glucose (MLD–STZ C57BL/6J mice; NeraSTZ, 60 min, Mean): 132.545 | ipITT glucose normalized to 100, MEAN (MLD–STZ C57BL/6J mice; NeraSTZ, 60 min after ins): 46.24 | ipITT glucose (MLD–STZ C57BL/6J mice; NeraSTZ, 60 min after ins, individual mice): 123 and 110 and 79 and 95 and 108 and 169 and 231 and 87 and 198 and 150 | ipITT glucose (MLD–STZ C57BL/6J mice; NeraSTZ, 90 min, Mean): 132.455 | ipITT glucose normalized to 100, MEAN (MLD–STZ C57BL/6J mice; NeraSTZ, 90 min after ins): 46.21 | ipITT glucose (MLD–STZ C57BL/6J mice; NeraSTZ, 90 min after ins, individual mice): 174 and 97 and 79 and 135 and 116 and 100 and 155 and 203 and 103 and 136 and 159 | basal glucose levels after an overnight fast ([1]; db/db): unchanged | glucose levels in ipGTT ([1]; db/db): lower glucose levels at all time points measured | AUC ipGTT ([1]; insert 8b, individual mice): 30540 and 34635 and 37620 and 33592.5 and 28230 and 32955 | MEAN AUC ipGTT ([1]; insert 8b, mean): 32928.8 | ipGTT ([1]; time after glc 0, MEAN): 167.333 mg/dL | ipGTT ([1]; time after glc 0, individual mice): 133 mg/dL and 142 mg/dL and 168 mg/dL and 224 mg/dL and 154 mg/dL and 183 mg/dL | ipGTT ([1]; time after glc 15, MEAN): 424.5 mg/dL | ipGTT ([1]; time after glc 15, individual mice, 600 mg/dl is maximum reading): 425 mg/dL and 445 mg/dL and 468 mg/dL and 413 mg/dL and 308 mg/dL and 488 mg/dL | ipGTT ([1]; time after glc 30, MEAN, 600 mg/dl is maximum reading): 520.5 mg/dL | ipGTT ([1]; time after glc 30, individual mice, 600 mg/dl is maximum reading): 481 mg/dL and ≥ 600 mg/dL and 476 mg/dL and 485 mg/dL | ipGTT ([1]; time after glc 60, MEAN): 340.167 mg/dL | ipGTT ([1]; time after glc 60, individual mice): 301 mg/dL and 355 mg/dL and 388 mg/dL and 367 mg/dL and 321 mg/dL and 309 mg/dL | ipGTT ([1]; time after glc 90, MEAN): 226 mg/dL | ipGTT ([1]; time after glc 90, individual mice): 221 mg/dL and 183 mg/dL and 280 mg/dL and 259 mg/dL and 141 mg/dL and 272 mg/dL | ipGTT ([1]; time after glc 120, MEAN): 170.833 mg/dL | ipGTT ([1]; time after glc 120, individual mice): 191 mg/dL and 139 mg/dL and 210 mg/dL and 133 mg/dL and 213 mg/dL | inhibition at 10 µM (LCK): 96% | inhibition at 10 µM (MST1; read-out: % inhibition by neratinib): 98% | inhibition at 3 µM (MST1; read-out: MST1 inhibition): 97% | inhibition at 10 µM (CK1-EPSILON): 77% | inhibition at 10 µM (PYK2): 41% | inhibition at 10 µM (SGK1): 28% | inhibition at 10 µM (SYK): -14% | inhibition at 10 µM (TYK2): 15% | MST1/LATS2-induced YAP-S127 phosphorylation (MST1–LATS2 signaling): strongly inhibited
